From article PMC9374667 (Communications Biology, 2022)
Several values for one entry are separate records, joined by “and”; a condition that tells them apart may be missing. Equal entries are not always repeated.

What was measured:
db/db mice = test: Spontaneous motor activity (CLAMS, infrared beam breaks); assay type: in vivo; conditions: BBR 150mg/kg, individual mice 1-6
Method: At week 5 of treatment, basal metabolic parameters of mice were measured using the Comprehensive Lab Animal Monitoring System (CLAMS, Columbus Instruments, Columbus, OH). […] The number of times the infrared beams were broken along the X- or Y-axis was used to measure the dynamic activity of mice. The respiratory exchange rate (RER) was calculated using classical Lusk theory and equations RER = VCO2/VO2.

3T3-L1 adipocytes = test: Immunofluorescence staining of UCP1 and MitoTracker; assay type: cell-based, Murine; design: key: mean fluorescence intensity measured in ImageJ; conditions: Figure 7d; 10uM BBR; replicates
Method: The 3T3-L1 adipocytes were washed with PBS for 3 times, fixed with 4% paraformaldehyde solution for 30 min, and then washed again for 3 times. […] The cells were then incubated overnight at 4 °C with the appropriate primary antibodies (1:100 dilution). The next day, the 3T3-L1 adipocytes were washed and incubated at room temperature with goat anti-rabbit secondary antibody or goat anti-mouse secondary antibody (1:1000 dilution) for 2 h and washed with PBS for 3 times. The nuclei were stained with DAPI. […] Fluorescence images were taken using a laser confocal microscope (SP8, Leica, Germany). At least four images per section were acquired for quantification, and the mean intensity were evaluated using ImageJ.

cAMP, glycerol release = test: cAMP levels and glycerol release in TNF-α induced 3T3-L1 adipocytes (isoproterenol); assay type: cell-based, Murine
Method: The epididymal adipose tissue was dissected, the fresh adipose tissue was weighed and rapidly rinsed with PBS. The adipose tissue was cut and incubated with isoproterenol (10 μM) for 2 h, and homogenized in a cold cleavage buffer to prepare the adipose tissue homogenate. Then the homogenate was centrifuged at 12,000 × g at 4 °C for 15 min, and the supernatant was collected. […] Then the cells were lysed in a petri dish, scraped off, and centrifuged at 12,000 × g at 4 °C for 15 min before the supernatant was collected. […] And concentrations were further standardized according to protein concentration.

[1] = system: IKKε, TBK1, p-TBK1, UCP1, p-AMPKα; test: Western blotting of eWAT; assay type: in vivo; conditions: db/db mice
Method: The adipose tissue or 3T3-L1 adipocytes were homogenized by ultrasound in an ice‐cold RIPA lysis buffer containing 1% PMSF and centrifuged at 12,000 × g at 4°C for 15 min to collect the supernatant. The BCA protein assay kit (Beyotime, Shanghai, China) was used to detect the total protein concentration. Proteins (20-30 μg) of the sample were separated by 10% SDS-PAGE gel and transferred onto polyvinylidene difluoride (PVDF) membranes. Then the PVDF membranes were blocked in 5% skim milk powder in TBS containing 1% Tween-20 (TBST) for 2 h at room temperature and washed with TBST for 3 times. The membranes were incubated with the appropriate primary antibody, IKKε (1:1000 dilution), TBK1 (1:1000 dilution), p-TBK1 Ser172 (1:1000 dilution), p-AMPKα Thr172 (1:1000 dilution), UCP1 (1:1000 dilution), and GAPDH (1:1000 dilution) in the blocking buffer solution at 4 °C overnight. After washing, the membranes were incubated with horseradish peroxidase-conjugated secondary antibodies (in 5% skim milk powder) for 1 h at room temperature. Finally, the membranes were treated with enhanced chemiluminescence agents (Tanon, Shanghai, China) and the signals were monitored using the Tanon 5200 multi chemiluminescent imaging system (Tanon, Shanghai, China).

## COc1ccc2cc3[n+](cc2c1OC)CCc1cc2c(cc1-3)OCO2 [BBR, Berberine chloride dihydrate]
db/db mice; TIME 09:00:00
  Spontaneous motor activity (Figure 3j): 453.5 and 1366 and 855.5 and 150 and 210.5 and 798
db/db mice; TIME 10:00:00
  Spontaneous motor activity (Figure 3j): 578.5 and 328 and 167.5 and 335.5 and 115 and 382
db/db mice; TIME 11:00:00
  Spontaneous motor activity (Figure 3j): 144.5 and 288.5 and 281.5 and 646 and 886.5 and 449
db/db mice; TIME 12:00:00
  Spontaneous motor activity (Figure 3j): 559 and 373.5 and 450.5 and 378.5 and 424.5 and 29.5
db/db mice; TIME 13:00:00
  Spontaneous motor activity (Figure 3j): 620.5 and 553.5 and 835.5 and 411 and 498 and 330
db/db mice; TIME 14:00:00
  Spontaneous motor activity (Figure 3j): 823.5 and 171 and 498 and 447 and 397.5 and 455
db/db mice; TIME 15:00:00
  Spontaneous motor activity (Figure 3j): 870 and 677.5 and 611.5 and 326 and 849.5 and 246
db/db mice; TIME 16:00:00
  Spontaneous motor activity (Figure 3j): 482.5 and 647.5 and 365.5 and 416.5 and 803.5 and 105
db/db mice; TIME 17:00:00
  Spontaneous motor activity (Figure 3j): 814 and 1029.5 and 535.5 and 427.5 and 177.5 and 328
db/db mice; TIME 18:00:00
  Spontaneous motor activity (Figure 3j): 694 and 351 and 1055.5 and 323.5 and 1331.5 and 362
db/db mice; TIME 19:00:00
  Spontaneous motor activity (Figure 3j): 242 and 551.5 and 453.5 and 327.5 and 706.5 and 367
db/db mice; TIME 20:00:00
  Spontaneous motor activity (Figure 3j): 34.5 and 1152.5 and 475 and 298.5 and 432.5 and 477
db/db mice; TIME 21:00:00
  Spontaneous motor activity (Figure 3j): 863 and 737 and 845.5 and 99.5 and 506 and 314
db/db mice; TIME 22:00:00
  Spontaneous motor activity (Figure 3j): 320.5 and 467 and 701 and 142 and 156 and 371.5
db/db mice; TIME 23:00:00
  Spontaneous motor activity (Figure 3j): 428.5 and 928 and 390.5 and 869 and 897 and 315.5
db/db mice; TIME 1900-01-01 01:00:00
  Spontaneous motor activity (Figure 3j): 479.5 and 494 and 426 and 899
db/db mice; TIME 1900-01-01
  Spontaneous motor activity (Figure 3j): 542.5 and 374 and 305.5 and 238 and 658 and 526
3T3-L1 adipocytes
  MitoTracker: 25.545 and 18.064 and 22.543 and 21.627 and 16.023 and 19.205 and 20.957 and 15.64 and 24.469 and 20.477 and 21.808 and 21.524
  UCP1: 28.534 and 25.717 and 23.768 and 26.01 and 16.988 and 23.573 and 17.055 and 20.669 and 24.128 and 20.8 and 21.801 and 21.746

## CC(C)Cc1ccc(C(C)C(=O)[O-])cc1.COc1ccc2cc3[n+](cc2c1OC)CCc1cc2c(cc1-3)OCO2.O.O.O.O [BJ, berberine-ibuprofen]
cAMP, glycerol release; BJ
  Glycerol release in differentiated 3T3-L1 adipocytes induced by TNF-α: 92.8546 µmol/L and 97.0733 µmol/L and 93.6983 µmol/L
  cAMP levels in differentiated 3T3-L1 adipocytes induced by TNF-α: 0.2237 pmol/mg protein and 0.2235 pmol/mg protein and 0.2307 pmol/mg protein
cAMP, glycerol release; BJ+TNF-α(50ng/ml)
  Glycerol release in differentiated 3T3-L1 adipocytes induced by TNF-α: 63.3237 µmol/L and 59.9487 µmol/L and 58.2612 µmol/L
  cAMP levels in differentiated 3T3-L1 adipocytes induced by TNF-α: 0.1653 pmol/mg protein and 0.1544 pmol/mg protein and 0.1605 pmol/mg protein
cAMP, glycerol release; ISO+BJ
  Glycerol release in differentiated 3T3-L1 adipocytes induced by TNF-α: 186.51 µmol/L and 191.572 µmol/L and 183.135 µmol/L
  cAMP levels in differentiated 3T3-L1 adipocytes induced by TNF-α: 0.3839 pmol/mg protein and 0.37 pmol/mg protein and 0.3787 pmol/mg protein
cAMP, glycerol release; ISO+BJ+TNF-α(50ng/ml)
  Glycerol release in differentiated 3T3-L1 adipocytes induced by TNF-α: 167.104 µmol/L and 166.26 µmol/L
  cAMP levels in differentiated 3T3-L1 adipocytes induced by TNF-α: 0.248 pmol/mg protein and 0.2422 pmol/mg protein and 0.2461 pmol/mg protein
cAMP, glycerol release; TNF-α induced 3T3-L1 adipocytes, BJ pretreatment, isoproterenol stimulation
  Glycerol release and cAMP levels: promoted glycerol release, increased cAMP levels
[1]
  Expression of UCP1 and phosphorylation of TBK1 at Ser172 in eWAT: increased
[1]; both doses of BJ, western blotting
  Protein levels of IKKε and TBK1 in eWAT: significantly reduced
[1]; inhibited in db/db eWAT
  AMPKα Thr172 phosphorylation (p-AMPKα) in eWAT: restored
